# Experimental data: patent US12162840B2, “Herbicidal compositions” (SYNGENTA PARTICIPATIONS AG, priority 2018, dated 2024)
# Experiments:
# Format in all cases: in vivo
# [1] = system: warm season plant species; assay: B2 Post-emergence efficacy Test 2, warm season plant species; conditions: 15 days after application, 0-100 scale, 0=no damage, 100=total kill; for Herbicidal activity, ABUTH: Abutilon theophrasti; for Herbicidal activity, AMARE: Amaranthus retroflexus; for Herbicidal activity, BIDPI: Bidens pilosa; for Herbicidal activity, BRAPL: Brachiaria plantaginea; for Herbicidal activity, DIGSA: Digitaria sanguinalis; for Herbicidal activity, ECHCG: Echinochloa crus galli; for Herbicidal activity, ELEIN: Eleisine indica; for Herbicidal activity, EPHHL: Euphorbia hetrophylla; for Herbicidal activity, GLXMA: Glycine max; for Herbicidal activity, IPOHE: Ipomoea hederacea; for Herbicidal activity, ORYSA: Orysa sativa; for Herbicidal activity, PANMI: Panicum miliaceum; for Herbicidal activity, SETFA: Setaria faberi; for Herbicidal activity, SIDSP: Sida spinosa; for Herbicidal activity, SORVU: Sorghum bicolour; for Herbicidal activity, XANST: Xanthium strumarium; for Herbicidal activity, ZEAMX: Zea mays
# Procedure, shortened: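 Plants at 12 days post-sowing were sprayed with active ingredient formulated in IF50 plus 0.2% v/v Genapol XO80, then grown in a glasshouse (24/18 °C or 20/16 °C day/night, 16 h light, 65% humidity). Damage scored 15 days after application on 0–100 scale (100 = total kill).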
# [2] = system: Ipomoea hederacea (IPOHE); assay: B1 Post-emergence efficacy Test 1; conditions: post-emergence application, 1000 g/ha, evaluated after 13 days
# Procedure, shortened: (§1)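 Post-emergence spray, 1000 g/ha, acetone/water 50:50 + 0.5% Tween 20, on 8-day-old potted plants. Glasshouse 24/16 °C, 14 h light, 65% RH, watered twice daily. Damage read at 13 d, scored 1–5 (1=0-19%, 5=80-100%).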
# Solanum nigrum (SOLNI) = assay: B1 Post-emergence efficacy Test 1; conditions: post-emergence application, 1000 g/ha, evaluated after 13 days
# Procedure, shortened: as §1
# [3] = system: Echinochloa crus-galli (ECHCG); assay: B1 Post-emergence efficacy Test 1; conditions: post-emergence application, 1000 g/ha, evaluated after 13 days
# Procedure, shortened: as §1
# Setaria faberi (SETFA) = assay: B1 Post-emergence efficacy Test 1; conditions: post-emergence application, 1000 g/ha, evaluated after 13 days
# Procedure, shortened: as §1
# [4] = system: Amaranthus retoflexus (AMARE); assay: B1 Post-emergence efficacy Test 1; conditions: post-emergence application, 1000 g/ha, evaluated after 13 days
# Procedure, shortened: as §1
# Lolium perenne (LOLPE) = assay: B1 Post-emergence efficacy Test 1; conditions: post-emergence application, 1000 g/ha, evaluated after 13 days
# Procedure, shortened: as §1
structure (smiles),measurement,setting,value
Cc1nn(C)c(=O)c(-c2c(F)ccc(Cl)c2CCc2ccc(Cl)cc2)c1OC(=O)C(C)C [Compound 1.089],"Herbicidal activity, ABUTH",[1]; 15 g/Ha,70
same,"Herbicidal activity, ABUTH",[1]; 30 g/Ha,90
same,"Herbicidal activity, ABUTH",[1]; 60 g/Ha,100
same,"Herbicidal activity, ABUTH",[1]; 125 g/Ha,100
same,"Herbicidal activity, ABUTH",[1]; 250 g/Ha,100
same,"Herbicidal activity, ABUTH",[1]; 500 g/Ha,100
same,"Herbicidal activity, AMARE",[1]; 15 g/Ha,80
same,"Herbicidal activity, AMARE",[1]; 30 g/Ha,80
same,"Herbicidal activity, AMARE",[1]; 60 g/Ha,90
same,"Herbicidal activity, AMARE",[1]; 125 g/Ha,100
same,"Herbicidal activity, AMARE",[1]; 250 g/Ha,100
same,"Herbicidal activity, AMARE",[1]; 500 g/Ha,100
same,"Herbicidal activity, BIDPI",[1]; 15 g/Ha,70
same,"Herbicidal activity, BIDPI",[1]; 30 g/Ha,60
same,"Herbicidal activity, BIDPI",[1]; 60 g/Ha,70
same,"Herbicidal activity, BIDPI",[1]; 125 g/Ha,80
same,"Herbicidal activity, BIDPI",[1]; 250 g/Ha,80
same,"Herbicidal activity, BIDPI",[1]; 500 g/Ha,100
same,"Herbicidal activity, BRAPL",[1]; 15 g/Ha,80
same,"Herbicidal activity, BRAPL",[1]; 30 g/Ha,90
same,"Herbicidal activity, BRAPL",[1]; 250 g/Ha,90
same,"Herbicidal activity, BRAPL",[1]; 500 g/Ha,90
same,"Herbicidal activity, DIGSA",[1]; 15 g/Ha,0
same,"Herbicidal activity, DIGSA",[1]; 30 g/Ha,0
same,"Herbicidal activity, DIGSA",[1]; 60 g/Ha,0
same,"Herbicidal activity, DIGSA",[1]; 125 g/Ha,10
same,"Herbicidal activity, DIGSA",[1]; 250 g/Ha,40
same,"Herbicidal activity, DIGSA",[1]; 500 g/Ha,30
same,"Herbicidal activity, ECHCG",[1]; 15 g/Ha,80
same,"Herbicidal activity, ECHCG",[1]; 30 g/Ha,80
same,"Herbicidal activity, ECHCG",[1]; 60 g/Ha,80
same,"Herbicidal activity, ECHCG",[1]; 125 g/Ha,90
same,"Herbicidal activity, ECHCG",[1]; 250 g/Ha,90
same,"Herbicidal activity, ECHCG",[1]; 500 g/Ha,100
same,"Herbicidal activity, ELEIN",[1]; 15 g/Ha,0
same,"Herbicidal activity, ELEIN",[1]; 30 g/Ha,0
same,"Herbicidal activity, ELEIN",[1]; 60 g/Ha,70
same,"Herbicidal activity, ELEIN",[1]; 125 g/Ha,80
same,"Herbicidal activity, ELEIN",[1]; 250 g/Ha,90
same,"Herbicidal activity, ELEIN",[1]; 500 g/Ha,90
same,"Herbicidal activity, EPHHL",[1]; 15 g/Ha,80
same,"Herbicidal activity, EPHHL",[1]; 30 g/Ha,100
same,"Herbicidal activity, EPHHL",[1]; 60 g/Ha,100
same,"Herbicidal activity, EPHHL",[1]; 125 g/Ha,100
same,"Herbicidal activity, EPHHL",[1]; 250 g/Ha,100
same,"Herbicidal activity, EPHHL",[1]; 500 g/Ha,100
same,"Herbicidal activity, GLXMA",[1]; 30 g/Ha,70
same,"Herbicidal activity, GLXMA",[1]; 60 g/Ha,80
same,"Herbicidal activity, GLXMA",[1]; 250 g/Ha,100
same,"Herbicidal activity, GLXMA",[1]; 500 g/Ha,100
same,"Herbicidal activity, IPOHE",[1]; 15 g/Ha,100
same,"Herbicidal activity, IPOHE",[1]; 30 g/Ha,100
same,"Herbicidal activity, IPOHE",[1]; 60 g/Ha,100
same,"Herbicidal activity, IPOHE",[1]; 125 g/Ha,100
same,"Herbicidal activity, IPOHE",[1]; 250 g/Ha,100
same,"Herbicidal activity, IPOHE",[1]; 500 g/Ha,100
same,"Herbicidal activity, ORYSA",[1]; 15 g/Ha,0
same,"Herbicidal activity, ORYSA",[1]; 30 g/Ha,0
same,"Herbicidal activity, ORYSA",[1]; 60 g/Ha,0
same,"Herbicidal activity, ORYSA",[1]; 125 g/Ha,10
same,"Herbicidal activity, ORYSA",[1]; 250 g/Ha,20
same,"Herbicidal activity, ORYSA",[1]; 500 g/Ha,50
same,"Herbicidal activity, PANMI",[1]; 15 g/Ha,0
same,"Herbicidal activity, PANMI",[1]; 30 g/Ha,20
same,"Herbicidal activity, PANMI",[1]; 60 g/Ha,50
same,"Herbicidal activity, PANMI",[1]; 125 g/Ha,60
same,"Herbicidal activity, PANMI",[1]; 250 g/Ha,80
same,"Herbicidal activity, PANMI",[1]; 500 g/Ha,90
same,"Herbicidal activity, SETFA",[1]; 15 g/Ha,0
same,"Herbicidal activity, SETFA",[1]; 30 g/Ha,20
same,"Herbicidal activity, SETFA",[1]; 60 g/Ha,30
same,"Herbicidal activity, SETFA",[1]; 125 g/Ha,60
same,"Herbicidal activity, SETFA",[1]; 250 g/Ha,60
same,"Herbicidal activity, SETFA",[1]; 500 g/Ha,80
same,"Herbicidal activity, SIDSP",[1]; 30 g/Ha,80
same,"Herbicidal activity, SIDSP",[1]; 60 g/Ha,90
same,"Herbicidal activity, SIDSP",[1]; 125 g/Ha,100
same,"Herbicidal activity, SIDSP",[1]; 250 g/Ha,100
same,"Herbicidal activity, SIDSP",[1]; 500 g/Ha,100
same,"Herbicidal activity, SORVU",[1]; 15 g/Ha,0
same,"Herbicidal activity, SORVU",[1]; 30 g/Ha,60
same,"Herbicidal activity, SORVU",[1]; 60 g/Ha,70
same,"Herbicidal activity, SORVU",[1]; 125 g/Ha,90
same,"Herbicidal activity, SORVU",[1]; 250 g/Ha,90
same,"Herbicidal activity, SORVU",[1]; 500 g/Ha,90
same,"Herbicidal activity, XANST",[1]; 30 g/Ha,90
same,"Herbicidal activity, XANST",[1]; 60 g/Ha,80
same,"Herbicidal activity, XANST",[1]; 125 g/Ha,90
same,"Herbicidal activity, XANST",[1]; 250 g/Ha,90
same,"Herbicidal activity, XANST",[1]; 500 g/Ha,100
same,"Herbicidal activity, ZEAMX",[1]; 15 g/Ha,0
same,"Herbicidal activity, ZEAMX",[1]; 30 g/Ha,20
same,"Herbicidal activity, ZEAMX",[1]; 60 g/Ha,30
same,"Herbicidal activity, ZEAMX",[1]; 125 g/Ha,30
same,"Herbicidal activity, ZEAMX",[1]; 250 g/Ha,90
same,"Herbicidal activity, ZEAMX",[1]; 500 g/Ha,100
same,"percentage damage caused to the plant, five point scale, IPOHE",[2],5 (5=80-100%)
same,"percentage damage caused to the plant, five point scale, SOLNI",Solanum nigrum (SOLNI),5 (5=80-100%)
same,"percentage damage caused to the plant, five point scale, ECHCG",[3],5 (5=80-100%)
same,"percentage damage caused to the plant, five point scale, SETFA",Setaria faberi (SETFA),5 (5=80-100%)
same,"percentage damage caused to the plant, five point scale, AMARE",[4],5 (5=80-100%)
same,"percentage damage caused to the plant, five point scale, LOLPE",Lolium perenne (LOLPE),5 (5=80-100%)
